Experimental data reported in patent publication US8299236B2, “Compositions and methods for enhancing delivery of nucleic acids into cells and for modifying expression of target genes in cells” (Marina Biotech, Inc., priority 2004, dated 2012).

Legend:
9 L/LacZ cells = assay: Screening of siRNA/peptide complexes for FAM-siRNA uptake (flow cytometry, propidium iodide); assay type: cell-based; details: Table 6
mouse tail fibroblasts = assay: siRNA uptake with siRNA/peptide complexes in murine primary fibroblasts; assay type: cell-based; details: Table 6
Description: Approximately 10,000 9 L/lacZ cells were plated per well in flat-bottom 96-well plates so that they would be ˜50% confluent the next day at the time of transfection. FAM-labeled siRNA and peptides were diluted in Opti-MEM® media (Invitrogen) at 2-fold the final concentration. Equal volumes of siRNA and peptide were mixed and allowed to complex 5-10 minutes at room temperature and then 50 μL added to cells, previously washed with PBS. Cells were transfected for 3 hours at 37° C., 5% CO2. Cells were washed with PBS, treated with trypsin and then analyzed by flow cytometry. siRNA uptake was measured by intensity of FAM fluorescence and cellular viability assessed by addition of propidium iodide.
The materials and methods used for these experiments are generally the same as described above, except that for the murine experiments 9 L/LacZ cells were replaced with mouse tail fibroblasts.
The uptake measurements were performed using mouse tail fibroblast cells.

hTNF-α = assay: Plasma hTNF-α ELISA in human TNF-α expressing mice; assay type: in vivo, mouse; details: i.v., average of the mice
Description: During the injection periods, plasma samples were collected for ELISA testing (R&D Systems, Cat#SSTA00C), and paw scores were taken twice a week as an accepted index of RA disease progression and therapeutic efficacy.

[1] = system: transgenic mouse models of rheumatoid arthritis (RA) constitutively expressing human TNF-α; assay: Transgenic mouse models of rheumatoid arthritis constitutively expressing human TNF-α; assay type: in vivo; details: twice weekly beginning at age 6 weeks; stabilization beginning at age 7 weeks
Description: One exemplary candidate siRNA/delivery peptide formulation was evaluated in two transgenic mouse models of rheumatoid arthritis (RA) constitutively expressing human TNF-α.

cells = assay: Uptake of peptide-siRNA conjugate versus complex (Cy5 fluorescence, flow cytometry); assay type: cell-based; details: FIGS. 1 and 2
Description: Cells were plated the day before in 24-well plates so that they were ˜50-80% confluent at time of transfection. For complexes, siRNA and peptide were diluted in Opti-MEM® media (Invitrogen), then mixed and allowed to complex 5-10 minutes before adding to cells washed with PBS. Final concentration of siRNA was 500 nM at each peptide concentration (2-50 μM). The conjugate, also diluted in Opti-MEM® media, was added to cells at final concentrations ranging from 62.5 nM to 500 nM. At 500 nM concentration, we also combined with 20% FBS just before adding to washed cells. Cells were transfected for 3 hours at 37° C., 5% CO2. Cells were washed with PBS, treated with trypsin and then analyzed by flow cytometry. siRNA uptake was measured by intensity of Cy5 fluorescence and cellular viability assessed by addition of propidium iodide.

## Ac-KETWWETWWTEWSQPKKKRKV-NH2 [PN182]
9 L/LacZ cells
  Percent Uptake, LacZ Cells: 85%

## H-GALFLGFLGAAGSTMGAWSQPKSKRKVC-NH2 [PN453]
Mouse tail fibroblasts
  Percent Uptake, Primary MTF Cells: 79%

## Ramicade: the RA drug Ramicade (5 mg/kg); TNF-α neutralizing agent infliximab
hTNF-α; age 7 weeks
  hTNF-α ELISA (plasma): 102.24 pg/mL
hTNF-α; age 8 weeks
  hTNF-α ELISA (plasma): 39.27 pg/mL
hTNF-α; age 9 weeks
  hTNF-α ELISA (plasma): 25.80 pg/mL
[1]
  RA score (paw and joint inflammation): RA score stabilization

## NH2-RKKRRQRRRPPQCAAVALLPAVLLALLAP-amide (H-RKKRRQRRRPPQCAAVALLPAVLLALLAP-NH2) [PN28]
9 L/LacZ cells
  Percent Uptake, LacZ Cells: 79%
Mouse tail fibroblasts
  Percent Uptake, Primary MTF Cells: 81%

## H-RGSRRAVTRAQRRDGRRRRRSRRESYSVYVYRVLRQ-NH2 [PN404]
Mouse tail fibroblasts
  Percent Uptake, Primary MTF Cells: 50%

## H-RRRQRRKRGGDIMGEWGNEIFGAIAGFLG-NH2 [PN250]
9 L/LacZ cells
  Percent Uptake, LacZ Cells: 99%
Mouse tail fibroblasts
  Percent Uptake, Primary MTF Cells: 86%

## conjugate: TAT-HA peptide (SEQ ID NO: 35) covalently conjugated to the siRNA sense strand (SEQ ID NO: 34) (chain 1 gcaagcugacccugaaguucau; chain 2 RRRQRRKRGGDIMGEWGNEIFGAIAGFLG; peptide-siRNA conjugate)
cells
  siRNA uptake and mean fluorescence, conjugate compared to complexing peptide and RNA: higher uptake and greater mean fluorescence uptake

## AAVALLPAVLLALLAPRKKRRQRRRPPQC [PN27]
9 L/LacZ cells
  Percent Uptake, LacZ Cells: 86%
Mouse tail fibroblasts
  Percent Uptake, Primary MTF Cells: 61%

## NH2-LLETLLKPFQCRICMRNFSTRQARRNHRRRHRR-amide (H-LLETLLKPFQCRICMRNFSTRQARRNHRRRHRR-NH2; cysteine pairing not given here) [PN202]
9 L/LacZ cells
  Percent Uptake, LacZ Cells: 71%

## H-AAVALLPAVLLALLAPSGASGLDKRDYV-NH2 [PN29]
9 L/LacZ cells
  Percent Uptake, LacZ Cells: 87%
